The text below walks through data of patent publication US10584105B2, “Immunoproteasome inhibitor analogs” (The Regents of the University of California, priority 2016, dated 2020).

Series [1] relates to MYCN2 neuroblastoma cells. The series is described as follows: Cell viability assay (MTS), MYCN2 neuroblastoma cells. The format is cell-based, human. To be noted: for effect on viability of MYCN2 cells: highest concentration tested (1 μM), 24 hours exposure. The procedure: (§1) (A) MYCN2, (B) SK—N—Be(2)c, and (C) SK—N—SH neuroblastoma cells were treated with 1 (NAM-105), 5 (NAM-93), or 6 (NAM-95) for 24 hours at three different concentrations (0.01, 0.1, and 1 μM). Bortezomib (BTZ) was included as a control. Cell viability was measured using the MTS reagent as described in the Methods section. Data shown are representative of two independent experiments, each performed in triplicate wells (n=6).
(§2) To determine the effect of the thiasyrbactins proteasome inhibitors on the viability of cancer cells, three different human neuroblastoma (NB) cell lines were used. BTZ was included as a control. SK—N—Be2c, SK—N—SH cells (ATCC, Manassas, Va.) and MYCN2 cells were plated overnight in RPMI media containing 10% heat-inactivated fetal bovine serum (FBS) (Invitrogen, Carlsbad, Calif., USA), supplemented with penicillin (100 U/ml) and streptomycin (100 μg/ml). Cells were cultured at 37° C. in a humidified atmosphere containing 5% CO2 and treated with 0.01, 0.1 and 1 μM proteasome inhibitor for 24 hours. Cell viability was determined using the Cell Titer 96 AQueous One Cell Proliferation Assay (Promega) reagent MTS by measuring absorbance at 490 nm using a Multi-Mode Synergy plate reader as Ibarra-Rivera et al. Assays were done in duplicate with triplicate wells of treatment per experiment (n=6). Data were expressed as the average cell viability relative to untreated control cells using Microsoft Excel™.

Series [2] concerns the target T1, immunoproteasome from human peripheral blood mononuclear cells (PBMCs), CT-L (β5) activity (Homo sapiens, UniProt P20618+P28062).
T1 construct: purchased Boston Biochem; host or cells: human peripheral blood mononuclear cells (native, purified)
The series is described as follows: In vitro proteasome activity assay, immunoproteasome, CT-L (β5). The format is biochemical. The following applies: for effect on CT-L activity of the immunoproteasome: at ≤10 μM; for effect on CT-L (chymotrypsin-like) activity of the immunoproteasome (FIG. 5): 1.0 μM, 2 hours. As to the method:
(§3) To determine the anti-proteasome activity of the thiasyrbactins in the in vitro environment, three catalytic activities (β1, β2, β5) of the proteasome were measured as described in Ibarra-Rivera et al., Tetrahedron 67:9950-6 (2011)). […] Purified 20S constitutive proteasome from human erythrocytes or immunoproteasome from human peripheral blood mononuclear cells (PBMCs) (Boston Biochem, Cambridge, Mass.) and luminogenic substrates Z-LRR-Glo, Z-nLPnLD-Glo, and Suc-LLVY-Glo (Promega, Fitchburg, Wis.) specific for the β1, β2, and β5 (also referred to as T-L, C-L, and CT-L) catalytic subunit activities, respectively, were used. Briefly, 2.2 ng/μL of constitutive proteasome and immunoproteosome were incubated with increasing concentration of proteasome inhibitor (0 to 10 μM) in 10 mM HEPES, pH 7.3, for two hours at 37° C. Equal volume of the appropriate luminogenic substrate was added to each reaction and luminescence was measured 10 minutes later using a Multi-Mode Synergy (Biotek, Inc., Winooski, Vt.) plate reader. Assays were done in triplicate (n=3). The Ki-50 values for each catalytic activity were determined for each of the inhibitors using Graphpad Prism 5 software (La Jolla, Calif.) and averaged using Microsoft Excel (Redmond, Wash.).
The thiasyrbactins were evaluated for their ability to inhibit each of the catalytic subunits of the constitutive and immunoproteasomes as well as for cytotoxic activity against neuroblastoma cancer cells. To test the inhibitory activity of 1 (NAM-105), 5 (NAM-93), and 6 (NAM-95), an in vitro assay was performed to test the effect of the thiasyrbactins on the three sub-catalytic activities (i.e., the CT-L, C-L, and T-L activities) of the constitutive proteasome and the immunoproteasome (Table 5).

Series [3] has as its system ARD multiple myeloma (MM) cells. The series is described as follows: Cell viability (MTS), ARD multiple myeloma cells. The format is cell-based. To be noted: Homo sapiens, 24 hours, MTS assay, N=3, read-out: IC-50 cell viability ARD cells. As to the method: (§4) N=3. Cells were incubated for 24 hours in the presence of 1 (NAM-105), 5 (NAM-93), 6 (NAM-95) or DMSO (control) and cell viability measured using the MTS assay. IC-50s for ARD cells are 4.085±0.865 μM (5, NAM-93), N/A (6, NAM-95), and 1.673±0.337 μM (1, NAM-105). IC-50 for U266 cells are 3.308±0.916 μM (5, NAM-93), N/A (6, NAM-95), and 1.474±0.577 μM (1, NAM-105). N/A; not applicable (50% inhibition not reached at tested concentrations).
A general note: Tetrazolium dyes change colour on reduction, which living cells bring about.

Series [4] has as its system U266 multiple myeloma (MM) cells. The series is described as follows: Cell viability (MTS), U266 multiple myeloma cells. The format is cell-based. To be noted: Homo sapiens, U-266; 24 hours, MTS assay, N=3; read-out: IC-50 cell viability U266 cells. As to the method: as §4
In series [5] the target is T2, immunoproteasome from human peripheral blood mononuclear cells (PBMCs), C-L (β1) activity (Homo sapiens, UniProt P28065).
T2 construct: purchased Boston Biochem; host or cells: human peripheral blood mononuclear cells (native, purified)
The series is described as follows: In vitro proteasome activity assay, immunoproteasome, C-L (β1). The format is biochemical. As to the method: as §3, with “Briefly, 2.2 ng/μL of constitutive proteasome and immunoproteosome were incubated with increasing concentration of proteasome inhibitor (0 to 10 μM) in 10 mM HEPES, pH 7.3, for two hours at 37° C.” left out, “Assays were done in triplicate (n=3).” left out
(§5) The thiasyrbactins were evaluated for their ability to inhibit each of the catalytic subunits of the constitutive and immunoproteasomes as well as for cytotoxic activity against neuroblastoma cancer cells. […]

Series [6] concerns the target T3, 20S constitutive proteasome from human erythrocytes, CT-L (β5) activity (Homo sapiens, UniProt P20618+P28074).
T3 construct: purchased Boston Biochem; host or cells: human erythrocytes (native, purified)
The series is described as follows: In vitro proteasome activity assay, constitutive proteasome, CT-L (β5). The format is biochemical. To be noted: 1 μM. The procedure: as §3, with “Briefly, 2.2 ng/μL of constitutive proteasome and immunoproteosome were incubated with increasing concentration of proteasome inhibitor (0 to 10 μM) in 10 mM HEPES, pH 7.3, for two hours at 37° C.” left out, “Assays were done in triplicate (n=3).” left out
as §5

Series [7] concerns SK—N—SH neuroblastoma cells. The series is described as follows: Cell viability assay (MTS), SK—N—SH neuroblastoma cells. The format is cell-based, human. To be noted: for effect on viability of SK—N—SH cells: highest concentration tested (1 μM), 24 hours exposure. As to the method: as §1, §2
Series [8] concerns the target T4, immunoproteasome from human peripheral blood mononuclear cells (PBMCs), T-L (β2) activity (Homo sapiens, UniProt P40306+P49720).
T4 construct: purchased Boston Biochem; host or cells: human peripheral blood mononuclear cells (native, purified)
The series is described as follows: In vitro proteasome activity assay, immunoproteasome, T-L (β2). The format is biochemical. To be noted: 1 μM. The procedure:
as §3, with “Briefly, 2.2 ng/μL of constitutive proteasome and immunoproteosome were incubated with increasing concentration of proteasome inhibitor (0 to 10 μM) in 10 mM HEPES, pH 7.3, for two hours at 37° C.” left out, “Assays were done in triplicate (n=3).” left out
as §5

Series [9] has as its system SK—N—Be(2)c neuroblastoma cells. The series is described as follows: Cell viability assay (MTS), SK—N—Be(2)c neuroblastoma cells. The format is cell-based, human. The following applies: highest concentration tested (1 μM), 24 hours exposure. As to the method: as §1
as §2, with “Cells were cultured at 37° C. in a humidified atmosphere containing 5% CO2 and treated with 0.01, 0.1 and 1 μM proteasome inhibitor for 24 hours.” left out

`CCCCCCCCCCCCNC(=O)N[C@H](C(=O)N[C@H]1CSCCNC(=O)/C=C/[C@H](C)NC1=O)C(C)C` [Compound 1, (S)-2-(3-Dodecylureido)-3-methyl-N-((8S,11R,E)-8-methyl-5,10-dioxo-1-thia-4,9-diazacyclododec-6-en-11-yl)butanamide]: in [1] (24 hours, of control (DMSO)), the “viability of MYCN2 cells, % of control (DMSO)” value was 30-50%. The “effect on CT-L activity of the immunoproteasome” value in [2] is given as “no effect”. The results for the IC50 in series [3] and in series [4] were 1670 ± 337 nM and 1470 ± 577 nM, respectively. In addition, the “effect on C-L activity of the immunoproteasome” value in series [5] is listed as “no effect”. In series [6], the “activity vs. the chymotrypsin-like activity of the constitutive proteasome (screen, FIG. 5)” value is recorded as “greatest activity”. Moreover, the “viability of SK—N—SH cells, % of control (DMSO)” value in [7] (24 hours, of control (DMSO)) is 30-50%.

With `CC(C)[C@H](NC(=O)c1cnccn1)C(=O)N[C@H]1CSCCNC(=O)/C=C/[C@H](C)NC1=O` [Compound 6, N—((S)-3-Methyl-1-(((8S,11R,E)-8-methyl-5,10-dioxo-1-thia-4,9-diazacyclododec-6-en-11-yl)amino)-1-oxobutan-2-yl)pyrazine-2-carboxamide], the “effect on CT-L (chymotrypsin-like) activity of the immunoproteasome (FIG. 5)” value in [2] is reported as “stimulate”. Also, the “inhibition vs. the trypsin-like activity of the immunoproteasome (screen, FIG. 5)” value in [8] is “good inhibition”.

With `CC(C)Cc1ccc([C@H](C)C(=O)N[C@H](C(=O)N[C@H]2CSCCNC(=O)/C=C/[C@H](C)NC2=O)C(C)C)cc1` [Compound 5, (S)-2-((S)-2-(4-Isobutylphenyl)propanamido)-3-methyl-N-((8S,11R,E)-8-methyl-5,10-dioxo-1-thia-4,9-diazacyclododec-6-en-11-yl)butanamide], in series [9], the “effect on viability of SK—N—Be(2)c cells” value was “minimal effects”. In addition, in [1], the “effect on viability of MYCN2 cells” value is reported as “minimal effects”. For the same compound, the “effect on CT-L (chymotrypsin-like) activity of the immunoproteasome (FIG. 5)” value in series [2] is listed as “stimulate”. For the same compound, the “effect on CT-L activity of the immunoproteasome” value in series [2] was “no effect”. The IC50 was 4080 ± 865 nM in series [3] and 3310 ± 916 nM in series [4]. In series [5], the “effect on C-L activity of the immunoproteasome” value is “no effect”. Moreover, in series [7], the “effect on viability of SK—N—SH cells” value is reported as “minimal effects”. For the same compound, the “inhibition vs. the trypsin-like activity of the immunoproteasome (screen, FIG. 5)” value in series [8] was “good inhibition”.

For the compound `CC(C)C[C@H](NC(=O)[C@H](Cc1ccccc1)NC(=O)c1cnccn1)B(O)O` [BTZ, bortezomib, reference compound], the “cytotoxic effects in MYCN2 cells” value in series [1] (0.1-1 μM, 24 hours) is given as “strong cytotoxic effects”. Also, the “cytotoxic effects in SK—N—SH cells” value in series [7] (0.1-1 μM, 24 hours) is reported as “strong cytotoxic effects”.

Consider `CCCCCCCCCCCCNC(=O)N[C@H](C(=O)N[C@H]1C[S+]([O-])CCNC(=O)/C=C/[C@H](C)NC1=O)C(C)C` (stereo partly drawn) [Compound 2, (2S)-2-(3-Dodecylureido)-3-methyl-N-((8S,11R,E)-8-methyl-1-oxido-5,10-dioxo-1-thia-4,9-diazacyclododec-6-en-11-yl)butanamide], for which the “effect on viability of SK—N—Be(2)c cells” value in series [9] was “minimal effects”. Moreover, the “effect on viability of MYCN2 cells” value in [1] is on record as “minimal effects”. For the same compound, the “effect on viability of SK—N—SH cells” value in series [7] is listed as “minimal effects”.
